Measured values: ChEMBL document CHEMBL1142591, “Scalusamides A-C, new pyrrolidine alkaloids from the marine-derived fungus Penicillium citrinum” (2005)
Converted amounts (≈) assume the structure as drawn.

Key:
[1] = system: Cryptococcus neoformans; assay: Antifungal activity against Cryptococcus neoformans; type: functional
[2] = system: Micrococcus luteus; assay: Antibacterial activity against Micrococcus luteus; type: functional

C/C=C/CCCCC(=O)C(C)C(=O)N1CCC[C@@H]1CO (some centres not stated) [SCALUSAMIDE A]
MIC [1]: 16.7 µg/mL (≈ 59.3 µM)
MIC [2]: 33.3 µg/mL (≈ 118 µM)
